Laboratory results: article PMC11847361, “Design and screening of novel molecular compounds targeting lactate dehydrogenase of Babesia microti” (Parasites & Vectors, 2025)
“Also recorded” adds a separate entry of the source. Where two headings read alike, the source gives them in different places.

Experiments:
[1] = tested on: Plasmodium falciparum LDH; set-up: method as in PMID 9748363; conditions: cited from earlier work
[2] = biological target: human LDH-M (LDH-A4); set-up: method as in PMID 9748363; conditions: cited from earlier work
[3] = tested on: LDH activity in B. microti; conditions: cited from earlier work; for IC50: previous work
[4] = biological target: T1, rBmLDH (Babesia microti, UniProt I7J7V6); type: binding; conditions: for Kd: read-out: equilibrium dissociation constant (Kd)
[5] = biological target: T1, rBmLDH; type: biochemical; conditions: pH 9.5; read-out: BmLDH IC50
[6] = in vitro; type: cell-based; conditions: African green monkey
Method: The mycoplasma-free Vero cell line (ATCC-CCL-81, immortalized cells) was cryopreserved in liquid nitrogen with DMSO at the National Key Laboratory of Agricultural Microbiology, Huazhong Agricultural University, China. The cytotoxicity of compounds TA and TB was assessed in Vero cells using the CCK-8 assay (Vazyme). Briefly, Vero cells (100 µL, 10,000 cells/well) were cultured in Dulbecco’s modified Eagle medium (DMEM) supplemented with 10% fetal bovine serum (FBS) and 100 U/mL penicillin–streptomycin at 37 ℃ with 5% CO2 for 24 h. The cells were then treated with varying concentrations of TA (2000, 1000, 500, 250, and 125 μM) or TB (800, 400, 200, 100, and 50 μM) for 72 h. After the treatment period, the medium containing TA and TB was replaced with fresh medium. Subsequently, 10 µL of CCK-8 solution was added to each well, and the plate was incubated for an additional 3 h. Absorbance was measured at 450 nm using a multifunctional enzyme marker (Envision, PE, USA). Stock solutions of TA and TB were prepared at a concentration of 100 mM in absolute ethanol. Doxorubicin hydrochloride at 40 µM served as the positive control, while 2% absolute ethanol served as the negative control. The concentration required to achieve 50% cytotoxicity (CC50) values were calculated using GraphPad Prism 8, and all cytotoxicity assays were performed in triplicate.

[7] = tested on: B. microti; experiment: In vitro growth inhibition of B. microti; type: cell-based; conditions: Babesia microti, Erythrocyte, 72 h, read-out: B. microti IC50 (growth inhibition)
Method: Once parasitemia reached 60%, blood was collected from the tails of the mice, and the initial percent parasitized erythrocytes (PPE) was diluted to approximately 0.8% using healthy mouse erythrocytes. […] Cultures were incubated for 72 h at 37 ℃ in a gas mixture of 2% O2, 5% CO2, and 93% N2 [23, 24]. After incubation, blood smears were prepared, stained with Giemsa, and the parasitemia rate was calculated. All experiments were performed in triplicate.

T1 sequence (I7J7V6 1-332): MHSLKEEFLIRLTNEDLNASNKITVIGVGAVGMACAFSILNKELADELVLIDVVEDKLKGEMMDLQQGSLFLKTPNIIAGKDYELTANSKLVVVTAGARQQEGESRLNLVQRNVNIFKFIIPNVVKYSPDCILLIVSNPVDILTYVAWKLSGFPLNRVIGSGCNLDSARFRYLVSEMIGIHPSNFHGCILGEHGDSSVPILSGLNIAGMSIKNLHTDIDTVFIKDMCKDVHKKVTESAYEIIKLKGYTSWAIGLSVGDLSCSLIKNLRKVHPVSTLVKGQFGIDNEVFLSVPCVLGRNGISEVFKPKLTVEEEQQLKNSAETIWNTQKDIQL

Row | Compound | IC50 [3] [µM] | binding capacity/affinity to rBmLDH compared with lead compound DHNA [4] | Kd [4] [µM] | IC50 [5] [µM] | CC50 at 72 h [6] [µM] | other results
1 | CCCc1c(O)c(O)c(C(=O)O)c2cc(Cc3ccccc3)c(C)cc12 [Compound 11F] | – | – | – | – | – | Ki [1]: 0.3 µM; Ki [2]: 0.05 µM
2 | O=C(O)c1cc2cc(Br)ccc2c(Br)c1O [DBHCA, 1,6-dibromo-2-hydroxynapthalene 3-carboxylic acid] | 52.7 | – | – | – | – | –
3 | O=C(O)c1cc2cccc(O)c2cc1O [DHNA, 3,5-dihydroxy-2-naphthoxylic acid] | 30 | – | – | – | – | –
4 | Cc1cc2c(C(C)C)c(O)c(O)c(C=O)c2c(O)c1-c1c(C)cc2c(C(C)C)c(O)c(O)c(C=O)c2c1O [Gossypol] | – | – | – | – | – | concentration that significantly inhibits LDH activity in B. microti ([3]; in vitro): 592 nM
5 | O=C(O)c1ccccc1Cc1ccc2ccc(O)cc2c1 [TA] | – | over a threefold increase in binding capacity; also recorded: more than three times higher affinity | 11.3 | 71.6 | 1030 | IC50 ([7]; in vitro culture in mouse erythrocytes, 37 ℃): 122 µM
6 | O=C(O)c1cccc(-c2ccc3ccc(O)cc3c2)c1 [TB] | – | over a threefold increase in binding capacity; also recorded: more than three times higher affinity | 13.2 | 23.8 | 434 | IC50 ([7]; in Mus musculus): 112 µM
